Source: ChEMBL document CHEMBL1201862, “PubChem BioAssay data set” (2004)
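Protocol summary: plate cells (96-well), add compound at 5 concentrations, incubate 48 h, interpolate endpoints linearly. Here, GI50 denotes the concentration required for 50% inhibition of growth.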 Active and inactive are the calls of the source. No stated cut-off is given here; in the data, active = GI50 up to about 1.1 µM and inactive = higher.

Experiments:
Assay in all cases: NCI tumour cell line growth inhibition, 48 h
[1] = system: UACC-257
[2] = system: NCI-H460
[3] = system: HT-29
[4] = system: LXFL 529
[5] = system: DLD-1
[6] = system: Malme-3M
[7] = system: TK-10
[8] = system: COLO 205
[9] = system: RPMI-8226
[10] = system: HOP-62
[11] = system: NCI-H226
[12] = system: U-251
[13] = system: SF-268
[14] = system: UO-31
[15] = system: SK-MEL-5
[16] = system: A498
[17] = system: SNB-78
[18] = system: CAKI-1
[19] = system: SK-MEL-28
[20] = system: 786-0
[21] = system: RXF 631
[22] = system: K562
[23] = system: EKVX
[24] = system: DMS-114
[25] = system: MOLT-4
[26] = system: HCT-15
[27] = system: SN12C
[28] = system: SK-OV-3
[29] = system: XF498
[30] = system: SF-539
[31] = system: UACC-62
[32] = system: CCRF-CEM
[33] = system: LOX IMVI
[34] = system: SW-620
[35] = system: ACHN
[36] = system: HOP-18
[37] = system: OVCAR-8
[38] = system: M14
[39] = system: NCI-H23
[40] = system: SF-295
[41] = system: SNB-19
[42] = system: HCC 2998
[43] = system: A549
[44] = system: IGROV-1
[45] = system: HOP-92
[46] = system: M19-MEL
[47] = system: OVCAR-4
[48] = system: KM-20L2
[49] = system: OVCAR-5
[50] = system: OVCAR-3
[51] = system: DMS-273
[52] = system: HL-60
[53] = system: SNB-75
[54] = system: NCI-H522
[55] = system: RXF 393
[56] = system: HCT-116
[57] = system: SK-MEL-2
[58] = system: KM12

Measured: GI50

OCC12C3C4C1C1C2C3C41CO (centres undefined)
inactive: [1] > 100 µM | [2] > 100 µM | [3] > 100 µM | [4] > 100 µM | [5] > 100 µM | [6] > 100 µM | [7] > 100 µM | [8] > 100 µM | [9] > 100 µM | [10] > 100 µM | [11] > 100 µM | [12] > 100 µM | [13] > 100 µM | [14] > 100 µM | [15] > 100 µM | [16] > 100 µM | [17] > 100 µM | [18] > 100 µM | [19] > 100 µM | [20] > 100 µM | [21] > 100 µM | [22] > 100 µM | [23] > 100 µM | [24] > 100 µM | [25] > 100 µM | [27] > 100 µM | [28] > 100 µM | [29] > 100 µM | [30] > 100 µM | [31] > 100 µM | [32] > 100 µM | [33] > 100 µM | [34] > 100 µM | [35] > 100 µM | [36] > 100 µM | [37] > 100 µM | [38] > 100 µM | [39] > 100 µM | [40] > 100 µM | [41] > 100 µM | [42] > 100 µM | [43] > 100 µM | [44] > 100 µM | [45] > 100 µM | [46] > 100 µM | [47] > 100 µM | [48] > 100 µM | [49] > 100 µM | [50] > 100 µM
> 100 µM: [26]

COC(=O)C1Cc2c(n(C)c3ccccc23)C(CCC(=O)O)N1Cc1ccccc1 (centres undefined)
27.7 µM: [26]
inactive: [1] 43.2 µM | [51] 31.6 µM | [2] 23.6 µM | [3] 36.1 µM | [52] 34.4 µM | [4] 37 µM | [5] > 100 µM | [6] > 100 µM | [53] 32.5 µM | [54] 22.7 µM | [7] 55.8 µM | [8] 27 µM | [9] 16.1 µM | [10] > 100 µM | [11] 21.7 µM | [12] 37.7 µM | [13] 26.4 µM | [14] 21.2 µM | [15] 27.3 µM | [16] 15.2 µM | [17] 32.8 µM | [18] 37.2 µM | [19] 28.4 µM | [20] > 100 µM | [55] 28.6 µM | [21] 36.9 µM | [22] 37 µM | [23] 46.1 µM | [24] 26.7 µM | [25] 27.5 µM | [27] 38.5 µM | [28] 36.5 µM | [29] 28.1 µM | [30] 22.4 µM | [31] 26.6 µM | [32] 25.4 µM | [56] 21.2 µM | [33] 37.8 µM | [34] 40.4 µM | [35] 19.6 µM | [37] 39.4 µM | [57] > 100 µM | [38] 25.5 µM | [39] 26.4 µM | [40] 31 µM | [41] 33.2 µM | [58] 28.4 µM | [42] > 100 µM | [43] 31 µM | [44] 40.6 µM | [45] 23.6 µM | [46] 32.1 µM | [47] 33.7 µM | [48] 34.9 µM | [49] 79.3 µM | [50] 21.1 µM

O=C1C2=C(c3ccccc31)C(c1ccccc1Cl)N1C(=O)CCSC1=N2 (centres undefined)
> 100 µM: [26]
inactive: [1] > 100 µM | [51] > 100 µM | [3] > 100 µM | [52] > 100 µM | [5] > 100 µM | [6] > 100 µM | [53] 55.2 µM | [54] 35.7 µM | [7] > 100 µM | [8] > 100 µM | [9] 81.5 µM | [10] > 100 µM | [11] > 100 µM | [12] > 100 µM | [13] > 100 µM | [14] 58.1 µM | [15] > 100 µM | [16] > 100 µM | [18] > 100 µM | [19] > 100 µM | [20] > 100 µM | [21] > 100 µM | [22] > 100 µM | [23] > 100 µM | [24] > 100 µM | [25] 84.7 µM | [27] 89.9 µM | [28] > 100 µM | [29] 79.3 µM | [30] > 100 µM | [31] 76.7 µM | [32] > 100 µM | [56] > 100 µM | [34] > 100 µM | [35] > 100 µM | [37] > 100 µM | [57] > 100 µM | [38] > 100 µM | [39] 76 µM | [40] > 100 µM | [41] > 100 µM | [58] > 100 µM | [42] > 100 µM | [43] > 100 µM | [44] > 100 µM | [45] 30.1 µM | [46] > 100 µM | [47] 45.4 µM | [48] > 100 µM | [49] > 100 µM | [50] > 100 µM
